These are literature values, as cited in patent US6818426B2 (Daicel Chemical Industries, Ltd., priority 2000, dated 2004).

Data set [1] has as its target (R)-2,3-butanediol dehydrogenase derived from Saccharomyces cerevisiae (Saccharomyces cerevisiae, UniProt P39714). The settings on record: Arch. Microbiol., 154:267-273, 1990; cited from earlier work.
Data set [2] deals with glycerol dehydrogenase produced by Escherichia coli (Escherichia coli W-1485) (Escherichia coli, UniProt P0A9S5). The settings on record: J. Biol. Chem., 259:2124-2129, 1984; cited from earlier work.
glycerol dehydrogenase produced by Escherichia coli (Escherichia coli W-1485), sequence (P0A9S5 whole entry): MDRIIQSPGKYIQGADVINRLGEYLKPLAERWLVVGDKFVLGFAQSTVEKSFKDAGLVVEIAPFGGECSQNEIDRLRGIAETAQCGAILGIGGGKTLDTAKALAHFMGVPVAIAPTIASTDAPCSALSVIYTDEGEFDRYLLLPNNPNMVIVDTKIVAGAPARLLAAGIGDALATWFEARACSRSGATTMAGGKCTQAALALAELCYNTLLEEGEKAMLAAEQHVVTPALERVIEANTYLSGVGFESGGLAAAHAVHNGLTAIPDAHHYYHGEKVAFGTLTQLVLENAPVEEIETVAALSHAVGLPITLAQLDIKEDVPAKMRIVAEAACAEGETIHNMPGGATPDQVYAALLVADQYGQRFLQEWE

(R)-2,3-butanediol dehydrogenase derived from Saccharomyces cerevisiae, sequence (P39714 whole entry): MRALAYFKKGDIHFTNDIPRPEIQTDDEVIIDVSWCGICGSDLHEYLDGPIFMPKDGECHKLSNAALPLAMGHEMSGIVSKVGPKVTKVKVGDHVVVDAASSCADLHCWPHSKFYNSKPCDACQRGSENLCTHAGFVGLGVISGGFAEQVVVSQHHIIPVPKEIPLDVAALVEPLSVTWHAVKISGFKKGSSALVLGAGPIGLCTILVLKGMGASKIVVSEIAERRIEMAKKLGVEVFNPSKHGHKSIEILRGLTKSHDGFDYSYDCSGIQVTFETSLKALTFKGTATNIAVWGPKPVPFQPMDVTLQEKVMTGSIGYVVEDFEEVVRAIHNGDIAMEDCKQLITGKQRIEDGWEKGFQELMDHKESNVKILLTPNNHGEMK

On to `CC(O)C(C)O` (racemic) [DL-2,3-butanediol], for which the dehydrogenase activity result in data set [1] is “about 20.3 U/mg protein”. Besides, the Vmax in data set [2] is 21.2 U/mg protein.
